Earlier results as cited in patent US20080108695A1, “Method of Treating Asthma, Allergic Rhinitis, and Skin Disorders” (Alcon Manufacturing Ltd., priority 2006, published 2008).

How the values were obtained:
neutrophils = settings: potency compared with lipoxin A4; literature report of Lee et al.
cysLT1 = biological target: T1, cysLT1 (Homo sapiens, UniProt Q9Y271); settings: high affinity receptor for LTD4; background statement
T1 sequence (Q9Y271 1-337): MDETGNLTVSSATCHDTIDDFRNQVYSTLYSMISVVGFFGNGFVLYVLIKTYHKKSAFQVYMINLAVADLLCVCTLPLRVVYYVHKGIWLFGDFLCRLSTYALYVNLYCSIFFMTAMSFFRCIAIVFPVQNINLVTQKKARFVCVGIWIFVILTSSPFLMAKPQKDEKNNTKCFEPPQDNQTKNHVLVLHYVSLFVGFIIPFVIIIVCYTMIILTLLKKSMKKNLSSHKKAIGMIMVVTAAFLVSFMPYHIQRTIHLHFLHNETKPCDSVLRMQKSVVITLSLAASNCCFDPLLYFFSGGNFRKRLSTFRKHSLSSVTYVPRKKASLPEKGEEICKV

[1] = biological target: T2, ALXR (formyl peptide receptor FPRL-1) (Homo sapiens, UniProt P25090); settings: lipoxin A4 cognate receptor; background statement
T2 sequence (P25090 1-351): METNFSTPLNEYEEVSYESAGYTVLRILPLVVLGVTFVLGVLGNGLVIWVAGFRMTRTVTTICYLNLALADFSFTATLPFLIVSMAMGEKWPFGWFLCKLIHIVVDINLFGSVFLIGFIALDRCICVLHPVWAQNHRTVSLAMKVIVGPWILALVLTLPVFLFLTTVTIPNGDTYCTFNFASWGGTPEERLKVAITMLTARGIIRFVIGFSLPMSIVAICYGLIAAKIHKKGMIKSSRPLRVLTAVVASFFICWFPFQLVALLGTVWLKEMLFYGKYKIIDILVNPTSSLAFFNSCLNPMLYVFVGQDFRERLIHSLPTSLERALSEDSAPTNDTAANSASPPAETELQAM

**Q.** Which “inhibition of LTB4-induced chemotaxis of neutrophils” value (neutrophils) does the source give for `CCCCC[C@H](O)[C@H](O)CO` [Compound 2] here?
**A.** Its value is “as potently as lipoxin A4”.

**Q.** Which “inhibition of LTB4-induced chemotaxis of neutrophils” value (neutrophils) does the source give for `COC(=O)CCC[C@H](O)[C@H](O)CO` [Compound 1] here?
**A.** Its value is “as potently as lipoxin A4”.

**Q.** With `CCCCC[C@H](O)/C=C/C=C\C=C\C=C\[C@@H](O)[C@@H](O)CCCC(=O)O` [Lipoxin A4] as the compound, how does the “binding affinity for cysLT1” value (cysLT1) read?
**A.** The value was “nM affinity”.

**Q.** What about the “binding affinity for ALXR” value [1] of the same compound?
**A.** The value was “nM affinity”.
